For eleven compounds, Ki and IC50 results are on record in patent US20110046185A1, “Arylchalcogenoarylalkyl-substituted imidazolidine-2,4-diones, process for preparation thereof, medicaments comprising these compounds and use thereof” (SANOFI-AVENTIS, priority 2008, published 2011).

Like-named read-outs stand apart in the source and are kept apart here.

Assay [1] deals with T1, hCB1R (Homo sapiens, UniProt P21554). Nature of the assay: Binding to the CB1 receptor ([3H]-SR141716A displacement, CHO-K1/cannabinoid CB1 protein). Details: expressed in transfected cells. Here is the method: Test compounds: The compounds (3 μl, 10 mM, 100% DMSO), pipetted into 96-well PP microtiter plates, were diluted with 27 μl of 100% DMSO (dimethyl sulfoxide). Proceeding from this solution, further 3-fold dilution steps were undertaken by transferring 10 μl in each case to a new PP microtiter plate and adding a further 20 μl of 100% DMSO. In each case 6 μl of these solutions were transferred into new 96-well PP microtiter plates and made up with 144 μl of assay buffer. The end concentrations ranged from 10 μM to 0.005 μM.
Negative control: AM 251, dissolved in assay buffer with 1% DMSO, was added to the dilution series in the microtiter plates as a control. The end concentration was 1 μM.
Blank control: assay buffer with 1% DMSO was added to the dilution series of the microtiter plates as a blank control.
The values were calculated using the corrected raw data.
The values reported were obtained as average values of a double determination. The IC50 values were calculated from the measurements with the program Xlfit, formula 205. Ki values were obtained from the IC50 and Kd values utilizing the Cheng-Prusoff equation: […]
Literature: Cheng, Y.-C., and Prusoff, W. H. (1973) Biochem. Pharmacol 22, 3099-3108 Results: Ki values of example compounds;

The target of assay [2] is T1, hCB1R. Put plainly: In vitro functional FLIPR assay with recombinant HEK293 cells, cannabinoid 1 receptor. Type of assay: cell-based. Also on record: expressed in transfected cells; host or cells: HEK293. The conditions noted are these: recombinant HEK293 cells expressing CB1 and Galpha16; Ca2+ change vs reference agonist. The procedure:
(§1) Function-testing assays were performed by means of the FLIPR technique (“Fluorometric Imaging Plate Reader”, Molecular Devices Corp.).
(§2) To this end, ligand-induced changes in the intracellular concentration of Ca^2+ in recombinant HEK293 cells, which expressed both a cannabinoid receptor (CB1 or CB2) and G-protein Galpha16, were determined. For the studies, cells were sown into 96-well microtiter plates (60 000 cells/well) and left to grow overnight. The medium was removed and the cells were incubated in buffer which contained the fluorescent dye Fluo-4. After this loading with dye, the cells were washed, test substance was added dissolved in buffer, the mixture was incubated for 20 minutes, a known cannabinoid receptor agonist as a reference agonist was added in buffer and, finally, the changes in the intracellular Ca^2+ concentration were measured in the FLIPR unit.
(§3) Results were presented as the percentage change relative to the control (0%: analogous experiment without test substance and without reference agonist, i.e. only with buffer; 100%: analogous experiment without test substance, but with reference agonist in excess), and used to calculate dose/action curves, and IC50 values were determined.

Assay [3] concerns the target T2, hCB2R (Homo sapiens, UniProt P34972).
T2 construct: expressed in transfected cells; host or cells: HEK293
Nature of the assay: In vitro functional FLIPR assay with recombinant HEK293 cells, cannabinoid 2 receptor. The assay is classed as cell-based. The conditions noted are these: recombinant HEK293 cells expressing CB2 and Galpha16; Ca2+ change vs reference agonist. The procedure: as §1, §2, §3

Setting [4] is: [3H]-SR141716A 0.5 nM, Ki from IC50 by Cheng-Prusoff, average of double determination, read-out: hCB1R, binding Ki.

T2 sequence (P34972 whole entry): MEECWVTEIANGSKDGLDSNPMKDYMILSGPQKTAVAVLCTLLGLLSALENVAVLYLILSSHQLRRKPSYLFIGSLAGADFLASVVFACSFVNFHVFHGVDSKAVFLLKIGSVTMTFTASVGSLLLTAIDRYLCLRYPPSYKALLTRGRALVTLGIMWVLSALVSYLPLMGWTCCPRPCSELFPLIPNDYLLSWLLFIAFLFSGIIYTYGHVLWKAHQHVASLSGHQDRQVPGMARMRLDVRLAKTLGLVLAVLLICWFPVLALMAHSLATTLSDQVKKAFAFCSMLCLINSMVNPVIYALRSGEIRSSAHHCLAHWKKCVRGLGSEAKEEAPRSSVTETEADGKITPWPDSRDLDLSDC
T1 sequence (P21554 whole entry): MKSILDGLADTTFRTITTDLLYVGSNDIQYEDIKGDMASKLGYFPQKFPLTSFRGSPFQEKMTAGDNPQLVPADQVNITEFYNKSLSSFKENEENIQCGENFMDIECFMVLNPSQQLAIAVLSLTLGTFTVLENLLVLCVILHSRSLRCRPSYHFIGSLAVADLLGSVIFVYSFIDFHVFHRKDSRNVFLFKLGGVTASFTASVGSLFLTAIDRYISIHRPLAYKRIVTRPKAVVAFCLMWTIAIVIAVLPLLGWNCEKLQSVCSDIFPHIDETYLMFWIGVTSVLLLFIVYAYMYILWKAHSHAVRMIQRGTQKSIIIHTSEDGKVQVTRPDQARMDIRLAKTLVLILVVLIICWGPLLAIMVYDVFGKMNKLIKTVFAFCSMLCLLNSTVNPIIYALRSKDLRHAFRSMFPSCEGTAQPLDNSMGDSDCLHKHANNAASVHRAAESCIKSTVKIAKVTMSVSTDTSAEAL

As to `CC1(C)C(=O)N(c2ccnc(C(F)(F)F)c2)C(=O)N1Cc1ccccc1Oc1ccccc1` [Example 83], the Ki in assay [1] (setting [4]) was 24 nM.

In the case of `CC1(C)C(=O)N(c2ccc(C#N)nc2)C(=O)N1Cc1ccccc1Oc1ccccc1` [Example 86], the Ki in assay [1] (setting [4]) was 311 nM.

Consider `COC(=O)c1ccc(Oc2ccccc2CN2C(=O)N(c3ccc(C#N)c(C(F)(F)F)c3)C(=O)C2(C)C)cc1` [Example 96], for which the Ki in assay [1] is 22 nM. The 50% inhibitory concentration (IC50) – broadly, the point on the concentration scale where inhibition reaches its midpoint – in assay [2] was determined as 152 nM.

On to `CC1(C)C(=O)N(c2ccnc(Cl)c2)C(=O)N1Cc1ccccc1Oc1ccccc1` [Example 82], for which the IC50 was more than 10000 nM in assay [3] and 100 nM in assay [2]. Moreover, the Ki in assay [1] (setting [4]) amounted to 2 nM.

As for `CC1(C)C(=O)N(c2ccc(C#N)c(C(F)(F)F)c2)C(=O)N1Cc1ccccc1Oc1ccc(C(=O)O)cc1` [Example 97, 4-{2-[3-(4-Cyano-3-trifluoromethylphenyl)-5,5-dimethyl-2,4-dioxo-imidazolidin-1-ylmethyl]phenoxy}benzoic acid], in assay [3], the IC50 is more than 10000 nM. Besides, the Ki in assay [1] (setting [4]) was 533 nM.

`CC1(C)C(=O)N(c2cccc(SC(F)(F)F)c2)C(=O)N1Cc1ccccc1Oc1ccccc1` [Example 14]: the Ki in assay [1] (setting [4]) is 289 nM.

For `CC1(C)C(=O)N(c2ccc(C#N)c(C(F)(F)F)c2)C(=O)N1Cc1ccccc1[S+]([O-])c1ccc(Cl)cc1` (centres unmarked) [Example 107, 4-{3-[2-(4-Chlorobenzenesulfinyl)benzyl]-4,4-dimethyl-2,5-dioxoimidazolidin-1-yl}-2-trifluoromethylbenzonitrile], the Ki in assay [1] (setting [4]) was 232 nM.

With `CC1(C)C(=O)N(c2cc(C(F)(F)F)ccc2F)C(=O)N1Cc1ccccc1Oc1ccccc1` [Example 12], the Ki in assay [1] (setting [4]) worked out at 284 nM.

As for `CC1(C)C(=O)N(c2cccc(C(F)(F)F)c2)C(=O)N1Cc1ccccc1Oc1ccccc1` [Example 8], the Ki in assay [1] (setting [4]) was 249 nM.

In the case of `CC1(C)C(=O)N(c2ccc(C#N)c(C(F)(F)F)c2)C(=O)N1Cc1ccccc1Oc1ccc(C(N)=O)cc1` [Example 98, 4-{2-[3-(4-Cyano-3-trifluoromethylphenyl)-5,5-dimethyl-2,4-dioxo-imidazolidin-1-ylmethyl]phenoxy}benzamide], the results for the IC50 in assay [3] and in assay [2] were more than 10000 nM and 507 nM, respectively.

With `CC1(C)C(=O)N(c2ccc(C#N)c(C(F)(F)F)c2)C(=O)N1Cc1ccccc1Sc1ccc(Cl)cc1` [Example 105, 4-{3-[2-(4-Chlorophenylsulfanyl)benzyl]-4,4-dimethyl-2,5-dioxoimidazolidin-1-yl}-2-trifluoromethylbenzonitrile], the IC50 in assay [3] is more than 10000 nM. Moreover, in assay [1], the Ki worked out at 44 nM.
